Reference: PubChem BioAssay (NCI)
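Step 1: Grow cells in 96-well plates. Step 2: Expose to compound for 48 hours at 5 concentrations. Step 3: Interpolate endpoints linearly; if unreached, use highest concentration. Definition used: TGI = concentration required for complete inhibition of growth.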

Tests used:
Experiment in all cases: inhibition of tumour cell growth, NCI panel, 48 h
MDA-MB-435 = system: MDA-MB-435
UACC-62 melanoma = system: UACC-62 melanoma
PC-3 prostate = system: PC-3 prostate
SNB-75 CNS = system: SNB-75 CNS
NCI-H460 lung = system: NCI-H460 lung
NCI-H522 lung = system: NCI-H522 lung
SK-OV-3 ovarian = system: SK-OV-3 ovarian
TK-10 renal = system: TK-10 renal
MALME-3M melanoma = system: MALME-3M melanoma
A549 NSCLC = system: A549 NSCLC
SK-MEL-2 melanoma = system: SK-MEL-2 melanoma
SF-539 CNS = system: SF-539 CNS
HCC-2998 colon = system: HCC-2998 colon
HCT-15 colon = system: HCT-15 colon
MOLT-4 leukemia = system: MOLT-4 leukemia
M14 melanoma = system: M14 melanoma
ACHN renal = system: ACHN renal
NCI/ADR-RES ovarian = system: NCI/ADR-RES ovarian
T-47D breast = system: T-47D breast
SF-268 CNS = system: SF-268 CNS
HOP-62 NSCLC = system: HOP-62 NSCLC
U251 CNS = system: U251 CNS
KM12 colon = system: KM12 colon
OVCAR-4 ovarian = system: OVCAR-4 ovarian
786-0 renal = system: 786-0 renal
OVCAR-8 ovarian = system: OVCAR-8 ovarian
DU-145 prostate = system: DU-145 prostate
K-562 leukemia = system: K-562 leukemia
UACC-257 melanoma = system: UACC-257 melanoma
SW-620 colon = system: SW-620 colon
MDA-MB-231 breast = system: MDA-MB-231 breast
NCI-H23 lung = system: NCI-H23 lung
MCF7 breast = system: MCF7 breast
MDA-N = system: MDA-N
SK-MEL-5 melanoma = system: SK-MEL-5 melanoma
EKVX NSCLC = system: EKVX NSCLC
HT29 colon = system: HT29 colon
UO-31 renal = system: UO-31 renal
RPMI-8226 leukemia = system: RPMI-8226 leukemia
LOX IMVI melanoma = system: LOX IMVI melanoma
HOP-92 NSCLC = system: HOP-92 NSCLC
OVCAR-5 ovarian = system: OVCAR-5 ovarian
BT-549 breast = system: BT-549 breast
SK-MEL-28 melanoma = system: SK-MEL-28 melanoma
CCRF-CEM leukemia = system: CCRF-CEM leukemia
HL-60(TB) leukemia = system: HL-60(TB) leukemia
HS 578T breast = system: HS 578T breast
NCI-H226 lung = system: NCI-H226 lung
SNB-19 CNS = system: SNB-19 CNS
OVCAR-3 ovarian = system: OVCAR-3 ovarian
SR leukemia = system: SR leukemia
SN12C renal = system: SN12C renal
A498 renal = system: A498 renal
SF-295 CNS = system: SF-295 CNS
CAKI-1 renal = system: CAKI-1 renal
HCT-116 colon = system: HCT-116 colon
COLO 205 colon = system: COLO 205 colon
IGROV1 ovarian = system: IGROV1 ovarian
RXF 393 renal = system: RXF 393 renal

Compound `O=C(c1c(Cl)cc(Cl)cc1Cl)N(Cc1cccnc1)C(=S)N(Cc1cccnc1)C(=O)c1c(Cl)cc(Cl)cc1Cl` has a TGI (MDA-MB-435) of 26.5 µM, a TGI (UACC-62 melanoma) of 34.2 µM and a TGI (PC-3 prostate) of 24 µM. For the same compound, the TGI (SNB-75 CNS) was 14.2 µM, the TGI (NCI-H460 lung) was 32.9 µM and the TGI (NCI-H522 lung) was 25.6 µM. It also gave a TGI (SK-OV-3 ovarian) of 77 µM, a TGI (TK-10 renal) of 11.1 µM and a TGI (MALME-3M melanoma) of 42.4 µM. The TGI (A549 NSCLC) was greater than 100 µM, the TGI (SK-MEL-2 melanoma) was 36 µM and the TGI (SF-539 CNS) was 28.4 µM. The TGI (HCC-2998 colon) was 7.4 µM, the TGI (HCT-15 colon) was 11.2 µM and the TGI (MOLT-4 leukemia) was greater than 100 µM. For the same compound, the TGI (M14 melanoma) was 26.5 µM, the TGI (ACHN renal) was 41.1 µM and the TGI (NCI/ADR-RES ovarian) was 34.3 µM. For the same compound, the TGI (T-47D breast) was 41.4 µM, the TGI (SF-268 CNS) was 27.8 µM and the TGI (HOP-62 NSCLC) was 20.3 µM. The TGI (U251 CNS) was 27.3 µM, the TGI (KM12 colon) was 10.3 µM and the TGI (OVCAR-4 ovarian) was 5.25 µM. It also gave a TGI (786-0 renal) of 10.5 µM, a TGI (OVCAR-8 ovarian) of 16.5 µM and a TGI (DU-145 prostate) of 17.2 µM. The TGI (K-562 leukemia) was greater than 100 µM, the TGI (UACC-257 melanoma) was 22.8 µM and the TGI (SW-620 colon) was greater than 100 µM. The TGI (MDA-MB-231 breast) was 40.9 µM, the TGI (NCI-H23 lung) was 23.5 µM and the TGI (MCF7 breast) was 15.8 µM. It also gave a TGI (MDA-N) of 5.2 µM, a TGI (SK-MEL-5 melanoma) of 26.4 µM and a TGI (EKVX NSCLC) of 35.3 µM. It also gave a TGI (HT29 colon) of 13.2 µM, a TGI (UO-31 renal) of 19.4 µM and a TGI (RPMI-8226 leukemia) greater than 100 µM. It also gave a TGI (LOX IMVI melanoma) of 15.1 µM, a TGI (HOP-92 NSCLC) of 10.6 µM and a TGI (OVCAR-5 ovarian) of 40.8 µM. The TGI (BT-549 breast) was 9.59 µM, the TGI (SK-MEL-28 melanoma) was 47.9 µM and the TGI (CCRF-CEM leukemia) was greater than 100 µM. It also gave a TGI (HL-60(TB) leukemia) of 64.7 µM, a TGI (HS 578T breast) of 58.4 µM and a TGI (NCI-H226 lung) of 45.1 µM. For the same compound, the TGI (SNB-19 CNS) was 52.4 µM, the TGI (OVCAR-3 ovarian) was 13.9 µM and the TGI (SR leukemia) was greater than 100 µM. The TGI (SN12C renal) was 20.5 µM, the TGI (A498 renal) was 51.6 µM and the TGI (SF-295 CNS) was 43.2 µM. For the same compound, the TGI (CAKI-1 renal) was 19.8 µM, the TGI (HCT-116 colon) was 11.1 µM and the TGI (COLO 205 colon) was 21.9 µM.

`C=C[C@H]1CN2CCc3c([nH]c4cc(O)ccc34)[C@@H]2C[C@@H]1C[C@H]1c2[nH]c3ccccc3c2CCN1C` showed a TGI (MDA-MB-435) of 3.76 µM, a TGI (UACC-62 melanoma) of 8.46 µM and a TGI (PC-3 prostate) of 9.69 µM. It also gave a TGI (SNB-75 CNS) of 6.62 µM, a TGI (NCI-H460 lung) of 4.96 µM and a TGI (NCI-H522 lung) of 8.29 µM. It also gave a TGI (SK-OV-3 ovarian) of 27.4 µM, a TGI (TK-10 renal) of 22.1 µM and a TGI (MALME-3M melanoma) of 26.9 µM. It also gave a TGI (A549 NSCLC) of 15 µM, a TGI (SK-MEL-2 melanoma) of 7.65 µM and a TGI (SF-539 CNS) of 3.33 µM. For the same compound, the TGI (HCC-2998 colon) was 3.44 µM, the TGI (HCT-15 colon) was 6.54 µM and the TGI (MOLT-4 leukemia) was 12.4 µM. For the same compound, the TGI (M14 melanoma) was 3.14 µM, the TGI (IGROV1 ovarian) was 3.39 µM and the TGI (ACHN renal) was 10.1 µM. For the same compound, the TGI (NCI/ADR-RES ovarian) was 24.6 µM, the TGI (T-47D breast) was 36.1 µM and the TGI (SF-268 CNS) was 15.8 µM. The TGI (HOP-62 NSCLC) was 9.37 µM, the TGI (U251 CNS) was 3.24 µM and the TGI (KM12 colon) was 9.13 µM. For the same compound, the TGI (OVCAR-4 ovarian) was 18.7 µM, the TGI (786-0 renal) was 3.36 µM and the TGI (OVCAR-8 ovarian) was 11.8 µM. It also gave a TGI (DU-145 prostate) of 33.9 µM, a TGI (K-562 leukemia) of 7.88 µM and a TGI (UACC-257 melanoma) of 3.98 µM. The TGI (SW-620 colon) was 3.87 µM, the TGI (MDA-MB-231 breast) was 16.9 µM and the TGI (NCI-H23 lung) was 31.8 µM. It also gave a TGI (MCF7 breast) of 6.01 µM, a TGI (MDA-N) of 3.22 µM and a TGI (SK-MEL-5 melanoma) of 3.14 µM. The TGI (EKVX NSCLC) was 20.1 µM, the TGI (HT29 colon) was 6.4 µM and the TGI (UO-31 renal) was 4.81 µM. The TGI (LOX IMVI melanoma) was 9.67 µM, the TGI (HOP-92 NSCLC) was 8.08 µM and the TGI (OVCAR-5 ovarian) was 31.4 µM. The TGI (BT-549 breast) was 27.2 µM, the TGI (SK-MEL-28 melanoma) was 3.27 µM and the TGI (CCRF-CEM leukemia) was 3.98 µM. The TGI (HL-60(TB) leukemia) was 7.69 µM, the TGI (HS 578T breast) was 11.1 µM and the TGI (NCI-H226 lung) was 36.3 µM. The TGI (SNB-19 CNS) was 17.6 µM, the TGI (OVCAR-3 ovarian) was 9.55 µM and the TGI (SR leukemia) was 6.41 µM. The TGI (SN12C renal) was 13.3 µM, the TGI (A498 renal) was 5.83 µM and the TGI (SF-295 CNS) was 9.15 µM. For the same compound, the TGI (CAKI-1 renal) was 14.6 µM, the TGI (HCT-116 colon) was 5.94 µM and the TGI (COLO 205 colon) was 3.31 µM.

For `Cn1c(=O)n2c(=O)n(C)c(=O)n2c1=O`, the TGI (MDA-MB-435) was greater than 100 µM, the TGI (UACC-62 melanoma) was greater than 100 µM and the TGI (PC-3 prostate) was greater than 100 µM. The TGI (SNB-75 CNS) was greater than 100 µM, the TGI (NCI-H460 lung) was greater than 100 µM and the TGI (NCI-H522 lung) was greater than 100 µM. The TGI (SK-OV-3 ovarian) was greater than 100 µM, the TGI (TK-10 renal) was greater than 100 µM and the TGI (MALME-3M melanoma) was greater than 100 µM. It also gave a TGI (A549 NSCLC) greater than 100 µM, a TGI (SK-MEL-2 melanoma) greater than 100 µM and a TGI (SF-539 CNS) greater than 100 µM. It also gave a TGI (HCC-2998 colon) greater than 100 µM, a TGI (RXF 393 renal) greater than 100 µM and a TGI (HCT-15 colon) greater than 100 µM. For the same compound, the TGI (MOLT-4 leukemia) was greater than 100 µM, the TGI (M14 melanoma) was greater than 100 µM and the TGI (IGROV1 ovarian) was greater than 100 µM. For the same compound, the TGI (NCI/ADR-RES ovarian) was greater than 100 µM, the TGI (T-47D breast) was greater than 100 µM and the TGI (SF-268 CNS) was greater than 100 µM. For the same compound, the TGI (U251 CNS) was greater than 100 µM, the TGI (KM12 colon) was greater than 100 µM and the TGI (OVCAR-4 ovarian) was greater than 100 µM. It also gave a TGI (786-0 renal) greater than 100 µM, a TGI (OVCAR-8 ovarian) greater than 100 µM and a TGI (DU-145 prostate) greater than 100 µM. The TGI (K-562 leukemia) was greater than 100 µM, the TGI (UACC-257 melanoma) was greater than 100 µM and the TGI (SW-620 colon) was greater than 100 µM. For the same compound, the TGI (MDA-MB-231 breast) was greater than 100 µM, the TGI (NCI-H23 lung) was greater than 100 µM and the TGI (MCF7 breast) was greater than 100 µM. For the same compound, the TGI (MDA-N) was greater than 100 µM, the TGI (SK-MEL-5 melanoma) was greater than 100 µM and the TGI (EKVX NSCLC) was greater than 100 µM. The TGI (HT29 colon) was greater than 100 µM, the TGI (UO-31 renal) was greater than 100 µM and the TGI (RPMI-8226 leukemia) was greater than 100 µM. For the same compound, the TGI (LOX IMVI melanoma) was greater than 100 µM, the TGI (OVCAR-5 ovarian) was greater than 100 µM and the TGI (BT-549 breast) was greater than 100 µM. For the same compound, the TGI (SK-MEL-28 melanoma) was greater than 100 µM, the TGI (CCRF-CEM leukemia) was greater than 100 µM and the TGI (HL-60(TB) leukemia) was greater than 100 µM. The TGI (HS 578T breast) was greater than 100 µM, the TGI (NCI-H226 lung) was greater than 100 µM and the TGI (SNB-19 CNS) was greater than 100 µM. For the same compound, the TGI (OVCAR-3 ovarian) was greater than 100 µM, the TGI (SR leukemia) was greater than 100 µM and the TGI (SN12C renal) was greater than 100 µM. The TGI (A498 renal) was greater than 100 µM, the TGI (CAKI-1 renal) was greater than 100 µM and the TGI (HCT-116 colon) was greater than 100 µM. The TGI (COLO 205 colon) was greater than 100 µM.
